Measured values: patent publication US20140350273A1, “PEDIATRIC USES OF CABAZITAXEL” (AVENTIS PHARMA S.A., priority 2012, published 2014)
Read-outs that look alike come from different tables or passages of the source.

System: human osteosarcoma DM113
Assay type: in vivo
Conditions: for Tumor Volume Data (Day 28) Median / ΔT/ΔC %: day 28; for MTTE / T-C: volume endpoint 1600 mm^3
Procedure: The resultant solution contains 10 mg/mL of cabazitaxel. Stock solution of cabazitaxel was then diluted in 0.9% sodium chloride.
This efficacy may be quantified, for example, as changes in tumor volume for each treated (T) and control (C) group, which are calculated for each animal and each day by subtracting the tumor volume on the day of first treatment (staging day) from the tumor volume on the specified observation day. This allows calculating the tumor growth inhibition: ΔT/ΔC=(median delta T/median delta C)×100. Individual tumor volume changes from baseline are thereafter analyzed by a non-parametric two-way ANOVA-TYPE (with factors: group and repeated days) followed by a post-hoc contrasts analysis, with Bonferroni-Holm adjustment for multiplicity, comparing all treated groups to the control group. […] A probability less than 5% (p<0.05) was considered as significant.
Based on the National Cancer Institute (NCl) standards, a ΔT/ΔC≦40% is the minimal level required to declare activity.
This efficacy may also be quantified by the number of tumor regressions observed after therapy. Individual mice reporting a tumor volume ≦50% of the Day 0 measurement for two consecutive measurements over a seven day period were considered partial responders (PR). Individual mice lacking palpable tumors (<4×4 mm^2 for two consecutive measurements over a seven day period) were classified as complete responders (CR); a CR that persisted until study completion was considered a tumor-free survivor (TFS).
Efficacy could also be determined at study completion, using tumor growth delay (T-C) in days, which is calculated using the median time to endpoint (MTTE) value for each treatment (T) group versus control (C). A Log Rank multiple comparison test with Bonferroni-Holm adjustment for multiplicity was applied on individual TTE to compare the treated groups to the control group.
The animals subjected to the experiment are subcutaneously grafted unilaterally with approximately 30 mg of a tumor fragment from low passage pediatric patient-derived tumor xenografts. The animals are implanted with a human patient-derived pediatric tumor xenografted in immuno-compromised mice (Harlan; nu/nu). Several days post tumor implantation, mice are randomized according to their tumor burden to the different groups of treatments and controls. The agents are dosed intravenously at 5.8, 9.3, 15 or 24.2 mg/kg every 4 days for a total of 3 doses (q4d×3) to mice bearing a tumor burden at start of therapy (day 0) ranged from 125 to 250 mm^3.
Beginning Day 0, animals were observed daily and weighed twice weekly using a digital scale; data including individual and mean gram weights (Mean We±SD), mean percent weight change versus Day 0 were recorded for each group. Animal deaths were recorded daily and designated as drug-related (D), technical (T), tumor related (B), or unknown (U) based on weight loss and gross observation; single agent or combination groups reporting a mean >20% for a period of 7 days and/or >10% mortality were considered above the maximum tolerated dose (MTD) for that treatment on the evaluated regimen.
The selected tumor model, DM113, was a low passage patient-derived tumor xenograft derived from an osteosarcoma taken from the lung of a patient.
The following end points were used: • Toxicity was declared at dosages inducing ≧20% body weight loss or ≧10% drug death; • Antitumor efficacy was determined by calculating the ΔT/ΔC value in percent on day 28 post treatment initiation, according to the above mentioned formula; • Individual tumor volume changes from baseline were analyzed by a non-parametric two-way ANOVA-TYPE (with factors: group and repeated day from 3 to 28) followed by a post-hoc contrasts analysis, with Bonferroni-Holm adjustment for multiplicity, comparing all treated groups to the control group on day 28. […] The volume endpoint for T-C calculations was chosen to be 1600 mm^3.

## CO[C@H]1C(=O)[C@]2(C)[C@@H](OC)C[C@H]3OC[C@@]3(OC(C)=O)[C@H]2[C@H](OC(=O)c2ccccc2)[C@]2(O)C[C@H](OC(=O)[C@H](O)[C@@H](NC(=O)OC(C)(C)C)c3ccccc3)C(C)=C1C2(C)C [Cabazitaxel, 4α-acetoxy-2α-benzoyloxy-5β,20-epoxy-1β-hydroxy-7β,10β-dimethoxy-9-oxo-11-taxen-13α-yl (2R,3S)-3-tert-butoxycarbonyl-amino-2-hydroxy-3-phenylpropionate]
5.8 mg/kg i.v./q4dx3
  #CR: 0/0/0
  #PR: 0/0/0
  #TFS: 0/0/0
  Drug Deaths Total: 0
  Tumor Volume Data (Day 28) Median: 512.5 mm^3
  ΔT/ΔC %: 29.4%
  MTTE: 47 days
  T-C: 16 days
5.8 mg/kg, DAY 3
  tumor volume changes from baseline, Median +/− MAD: 58 +/− 21.5
5.8 mg/kg, DAY 8
  tumor volume changes from baseline, Median +/− MAD: 63.5 +/− 37
5.8 mg/kg, DAY 11
  tumor volume changes from baseline, Median +/− MAD: 63.5 +/− 21.5
5.8 mg/kg, DAY 14
  tumor volume changes from baseline, Median +/− MAD: 95 +/− 41.5
5.8 mg/kg, DAY 17
  tumor volume changes from baseline, Median +/− MAD: 95 +/− 59
5.8 mg/kg, DAY 21
  tumor volume changes from baseline, Median +/− MAD: 158.5 +/− 39.5
5.8 mg/kg, DAY 24
  tumor volume changes from baseline, Median +/− MAD: 234 +/− 83.5
5.8 mg/kg, DAY 28
  tumor volume changes from baseline, Median +/− MAD: 334.5 +/− 96
5.8 mg/kg, DAY 31
  tumor volume changes from baseline, Median +/− MAD: 459.5 +/− 123
5.8 mg/kg, DAY 35
  tumor volume changes from baseline, Median +/− MAD: 579.5 +/− 228
5.8 mg/kg, DAY 38
  tumor volume changes from baseline, Median +/− MAD: 834.5 +/− 245
5.8 mg/kg, DAY 42
  tumor volume changes from baseline, Median +/− MAD: 1097 +/− 248
5.8 mg/kg, DAY 46
  tumor volume changes from baseline, Median +/− MAD: 1548.5 +/− 438.5
9.3 mg/kg i.v./q4dx3
  #CR: 0/0/0
  #PR: 0/0/0
  #TFS: 0/0/0
  Drug Deaths Total: 0
  Weight Nadir %: −3%
  Weight Nadir Day: 3
  Tumor Volume Data (Day 28) Median: 204 mm^3
  ΔT/ΔC %: 1.8%
  MTTE: >59 days
  T-C: >28 days
9.3 mg/kg, DAY 3
  tumor volume changes from baseline, Median +/− MAD: 29.5 +/− 27
9.3 mg/kg, DAY 8
  tumor volume changes from baseline, Median +/− MAD: 29.5 +/− 29.5
9.3 mg/kg, DAY 11
  tumor volume changes from baseline, Median +/− MAD: 29.5 +/− 29.5
9.3 mg/kg, DAY 14
  tumor volume changes from baseline, Median +/− MAD: 9 +/− 9
9.3 mg/kg, DAY 17
  tumor volume changes from baseline, Median +/− MAD: 0 +/− 0
9.3 mg/kg, DAY 21
  tumor volume changes from baseline, Median +/− MAD: 0 +/− 9
9.3 mg/kg, DAY 24
  tumor volume changes from baseline, Median +/− MAD: 0 +/− 31
9.3 mg/kg, DAY 28
  tumor volume changes from baseline, Median +/− MAD: 20 +/− 39.5
9.3 mg/kg, DAY 31
  tumor volume changes from baseline, Median +/− MAD: 69 +/− 69
9.3 mg/kg, DAY 35
  tumor volume changes from baseline, Median +/− MAD: 87.5 +/− 70.5
9.3 mg/kg, DAY 38
  tumor volume changes from baseline, Median +/− MAD: 182 +/− 155.5
9.3 mg/kg, DAY 42
  tumor volume changes from baseline, Median +/− MAD: 311 +/− 248
9.3 mg/kg, DAY 46
  tumor volume changes from baseline, Median +/− MAD: 576 +/− 317.5
15 mg/kg i.v./q4dx3
  #CR: 0
  #PR: 4
  #TFS: 0
  Drug Deaths Total: 0
  Weight Nadir %: −9%
  Weight Nadir Day: 14
  Tumor Volume Data (Day 28) Median: 131 mm^3
  ΔT/ΔC %: −4.4%
  MTTE: >59 days
  T-C: >28 days
15 mg/kg q4d×3 IV
  numbers of PR: 4/10
15 mg/kg, DAY 3
  tumor volume changes from baseline, Median +/− MAD: 13 +/− 13
15 mg/kg, DAY 8
  tumor volume changes from baseline, Median +/− MAD: 0 +/− 0
15 mg/kg, DAY 11
  tumor volume changes from baseline, Median +/− MAD: −23.5 +/− 23.5
15 mg/kg, DAY 14
  tumor volume changes from baseline, Median +/− MAD: −40.5 +/− 30
15 mg/kg, DAY 17
  tumor volume changes from baseline, Median +/− MAD: −40.5 +/− 30
15 mg/kg, DAY 21
  tumor volume changes from baseline, Median +/− MAD: −40.5 +/− 30
15 mg/kg, DAY 24
  tumor volume changes from baseline, Median +/− MAD: −50 +/− 36.5
15 mg/kg, DAY 28
  tumor volume changes from baseline, Median +/− MAD: −50 +/− 36.5
15 mg/kg, DAY 31
  tumor volume changes from baseline, Median +/− MAD: −53 +/− 36.5
15 mg/kg, DAY 35
  tumor volume changes from baseline, Median +/− MAD: −59.5 +/− 29
15 mg/kg, DAY 38
  tumor volume changes from baseline, Median +/− MAD: −59.5 +/− 39.5
15 mg/kg, DAY 42
  tumor volume changes from baseline, Median +/− MAD: −59.5 +/− 39.5
15 mg/kg, DAY 46
  tumor volume changes from baseline, Median +/− MAD: −59.5 +/− 42.5
24.2 mg/kg i.v./q4dx3
  #CR: 0
  #PR: 5
  #TFS: 0
  Drug Deaths Total: 0
  Weight Nadir %: −11%
  Weight Nadir Day: 11
  Tumor Volume Data (Day 28) Median: 112 mm^3
  ΔT/ΔC %: −3.6%
  MTTE: >59 days
  T-C: >28 days
24.2 mg/kg q4d×3 IV
  numbers of PR: 5/10
24.2 mg/kg, DAY 3
  tumor volume changes from baseline, Median +/− MAD: 9.5 +/− 9.5
24.2 mg/kg, DAY 8
  tumor volume changes from baseline, Median +/− MAD: 0 +/− 26.5
24.2 mg/kg, DAY 11
  tumor volume changes from baseline, Median +/− MAD: −40.5 +/− 34
24.2 mg/kg, DAY 14
  tumor volume changes from baseline, Median +/− MAD: −43.5 +/− 28.5
24.2 mg/kg, DAY 17
  tumor volume changes from baseline, Median +/− MAD: −40.5 +/− 24.5
24.2 mg/kg, DAY 21
  tumor volume changes from baseline, Median +/− MAD: −40.5 +/− 24.5
24.2 mg/kg, DAY 24
  tumor volume changes from baseline, Median +/− MAD: −40.5 +/− 40.5
24.2 mg/kg, DAY 28
  tumor volume changes from baseline, Median +/− MAD: −40.5 +/− 40.5
24.2 mg/kg, DAY 31
  tumor volume changes from baseline, Median +/− MAD: −40.5 +/− 34
24.2 mg/kg, DAY 35
  tumor volume changes from baseline, Median +/− MAD: −51 +/− 41.5
24.2 mg/kg, DAY 38
  tumor volume changes from baseline, Median +/− MAD: −51 +/− 41.5
24.2 mg/kg, DAY 42
  tumor volume changes from baseline, Median +/− MAD: −51 +/− 41.5
24.2 mg/kg, DAY 46
  tumor volume changes from baseline, Median +/− MAD: −51 +/− 41.5
Conclusion of example 5, 9.3, 15 and 24.2 mg/kg dose levels
  antitumor activity compared with docetaxel: higher efficacy than docetaxel
